Key:
[1] = tested on: Plasmodium falciparum F32-TEM (artemisinin-sensitive twin line); experiment: Standard chemosensitivity assay (SYBR Green I), F32-TEM; type: cell-based; details: Plasmodium falciparum; F32-TEM, 48 h incubation, SYBR Green I; mean ± SEM of 3 experiments (* mean of 2); read-out: Antiplasmodial Activity: IC50, F32-TEM
How it was run: (§1)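 Both parasite lines grown at 2% hematocrit in human red cells with 5% human serum, 37 °C, 5% CO2, then exposed to drug for 48 h in triplicate.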

[2] = tested on: Plasmodium falciparum F32-ART (artemisinin-resistant strain); experiment: Standard chemosensitivity assay (SYBR Green I), F32-ART; type: cell-based
How it was run: as §1

661W = tested on: 661W; set-up: method as in PMID 29048427; details: data from literature ref 44, read-out: Cytotoxicity: CC50 (661W); cited from earlier work

## CN1CCc2c(c3ccccc3n2Cc2ccc(C(=O)NO)cc2)C1 [Tubastatin A]
[1]
  IC50: 8 µM
[2]; Plasmodium falciparum, F32-ART, 48 h incubation, SYBR Green I, mean ± SEM of 3 experiments (* mean of 2), read-out: Antiplasmodial Activity: IC50, F32-ART
  IC50: 7 µM
[2]; ratio cytotoxicity (mammalian cell type of the CC50)/antiplasmodial activity on F32-ART
  Selectivity Index CC50/IC50: >1.4
661W
  CC50: > 10 µM
